These compounds were tested against His6-TEV-PDGFRβ (557-1016) (Homo sapiens (Human), UniProt P09619) (assay: PDGFRβ HTRF Assay). Details: read-out: PDGFR HTRF IC50.
Type: biochemical
Outline: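 HTRF KinEASE-TK readout (665/620 nm ratio) of TK-biotin substrate phosphorylation by His-tagged PDGFRβ kinase domain. Enzyme and inhibitor preincubated 30 min, then ATP/substrate added for 3 h at room temperature before 60 min EDTA quench/detection.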

Sequence of His6-TEV-PDGFRβ (557-1016) (P09619 557-1016): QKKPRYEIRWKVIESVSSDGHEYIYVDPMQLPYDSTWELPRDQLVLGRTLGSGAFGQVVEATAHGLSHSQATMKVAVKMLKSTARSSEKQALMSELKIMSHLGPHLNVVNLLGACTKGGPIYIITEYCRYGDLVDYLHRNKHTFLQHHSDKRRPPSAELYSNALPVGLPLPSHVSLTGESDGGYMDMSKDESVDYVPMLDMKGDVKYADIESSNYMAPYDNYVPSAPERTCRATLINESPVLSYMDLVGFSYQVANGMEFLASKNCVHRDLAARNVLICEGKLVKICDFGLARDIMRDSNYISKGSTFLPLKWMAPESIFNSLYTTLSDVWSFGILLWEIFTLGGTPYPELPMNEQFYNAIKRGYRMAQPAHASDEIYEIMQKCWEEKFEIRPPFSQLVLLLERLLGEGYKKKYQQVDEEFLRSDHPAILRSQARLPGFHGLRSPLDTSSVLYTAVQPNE

SMILES | IC50 [pM]
Cc1ncc(C(=O)NCCN2Cc3ncsc3C2)cc1NC(=O)c1cnn2cc(-c3cnn(C)c3)sc12 [Example 111, N-(5-((2-(4H-pyrrolo[3,4-d]thiazol-5 (6H)-yl)ethyl)carbamoyl)-2-methylpyridin-3-yl)-2-(1-methyl-1H-pyrazol-4-yl)pyrazolo[5,1-b]thiazole-7-carboxamide] | 1100
Cc1ncc(C(=O)NCCN2CC3COCC3C2)cc1NC(=O)c1cnn2cc(-c3cnn(C)c3)sc12 (stereo not drawn) [Example 112, 2-(1-methyl-1H-pyrazol-4-yl)-N-(2-methyl-5-((2-(tetrahydro-1H-furo[3,4-c]pyrrol-5 (3H)-yl)ethyl)carbamoyl)pyridin-3-yl)pyrazolo[5,1-b]thiazole-7-carboxamide] | 500
Cc1ncc(C(=O)NCCN2CCC3(CCC3)C2)cc1NC(=O)c1cnn2cc(-c3cnn(C)c3)sc12 [Example 113, N-(5-((2-(6-azaspiro[3.4]octan-6-yl)ethyl)carbamoyl)-2-methylpyridin-3-yl)-2-(1-methyl-1H-pyrazol-4-yl)pyrazolo[5,1-b]thiazole-7-carboxamide] | < 100
Cc1ncc(C(=O)NCCN2CCCC23COC3)cc1NC(=O)c1cnn2cc(-c3cnn(C)c3)sc12 [Example 114, N-(5-((2-(2-oxa-5-azaspiro[3.4]octan-5-yl)ethyl)carbamoyl)-2-methylpyridin-3-yl)-2-(1-methyl-1H-pyrazol-4-yl)pyrazolo[5,1-b]thiazole-7-carboxamide] | 400
COCCN(CCNC(=O)c1cnc(C)c(NC(=O)c2cnn3cc(-c4cnn(C)c4)sc23)c1)C1CCC1 [Example 115, N-(5-((2-(cyclobutyl(2-methoxyethyl)amino)ethyl)carbamoyl)-2-methylpyridin-3-yl)-2-(1-methyl-1H-pyrazol-4-yl)pyrazolo[5,1-b]thiazole-7-carboxamide] | 400
Cc1ncc(C(=O)NCCN2CCC3(CCOC3)C2)cc1NC(=O)c1cnn2cc(-c3cnn(C)c3)sc12 (stereo not drawn) [Example 116, N-(5-((2-(2-oxa-7-azaspiro[4.4]nonan-7-yl)ethyl)carbamoyl)-2-methylpyridin-3-yl)-2-(1-methyl-1H-pyrazol-4-yl)pyrazolo[5,1-b]thiazole-7-carboxamide] | 500
Cc1ncc(C(=O)NCCN2CCOCC23CCC3)cc1NC(=O)c1cnn2cc(-c3cnn(C)c3)sc12 [Example 117, N-(5-((2-(8-oxa-5-azaspiro[3.5]nonan-5-yl)ethyl)carbamoyl)-2-methylpyridin-3-yl)-2-(1-methyl-1H-pyrazol-4-yl)pyrazolo[5,1-b]thiazole-7-carboxamide] | 400
Cc1ncc(C(=O)NCCN2CCC3(CC3)C2)cc1NC(=O)c1cnn2cc(-c3cnn(C)c3)sc12 [Example 118, N-(5-((2-(5-azaspiro[2.4]heptan-5-yl)ethyl)carbamoyl)-2-methylpyridin-3-yl)-2-(1-methyl-1H-pyrazol-4-yl)pyrazolo[5,1-b]thiazole-7-carboxamide] | 300
Cc1ncc(C(=O)NCCN2CCC(F)(F)CC2)cc1NC(=O)c1cnn2cc(-c3cnn(C)c3)sc12 [Example 119, N-(5-((2-(4,4-difluoropiperidin-1-yl)ethyl)carbamoyl)-2-methylpyridin-3-yl)-2-(1-methyl-1H-pyrazol-4-yl)pyrazolo[5,1-b]thiazole-7-carboxamide] | 300
Cc1ncc(C(=O)NCCN2CCC(F)(F)C2)cc1NC(=O)c1cnn2cc(-c3cnn(C)c3)sc12 [Example 120, N-(5-((2-(3,3-difluoropyrrolidin-1-yl)ethyl)carbamoyl)-2-methylpyridin-3-yl)-2-(1-methyl-1H-pyrazol-4-yl)pyrazolo[5,1-b]thiazole-7-carboxamide] | 400
Cc1ncc(C(=O)NCCN2CCCOCC2)cc1NC(=O)c1cnn2cc(-c3cnn(C)c3)sc12 [Example 121, N-(5-((2-(1,4-oxazepan-4-yl)ethyl)carbamoyl)-2-methylpyridin-3-yl)-2-(1-methyl-1H-pyrazol-4-yl)pyrazolo[5,1-b]thiazole-7-carboxamide] | 400
Cc1ncc(C(=O)NCCN2C3CCC2COC3)cc1NC(=O)c1cnn2cc(-c3cnn(C)c3)sc12 [Example 122, N-(5-((2-(3-oxa-8-azabicyclo[3.2.1]octan-8-yl)ethyl)carbamoyl)-2-methylpyridin-3-yl)-2-(1-methyl-1H-pyrazol-4-yl)pyrazolo[5,1-b]thiazole-7-carboxamide] | 300
Cc1ncc(C(=O)NCCN2CCCC(F)(F)C2)cc1NC(=O)c1cnn2cc(-c3cnn(C)c3)sc12 [Example 123, N-(5-((2-(3,3-difluoropiperidin-1-yl)ethyl)carbamoyl)-2-methylpyridin-3-yl)-2-(1-methyl-1H-pyrazol-4-yl)pyrazolo[5,1-b]thiazole-7-carboxamide] | 300
Cc1ncc(C(=O)NCCN2CC3(CCC3)C2)cc1NC(=O)c1cnn2cc(-c3cnn(C)c3)sc12 [Example 124, N-(5-((2-(2-azaspiro[3.3]heptan-2-yl)ethyl)carbamoyl)-2-methylpyridin-3-yl)-2-(1-methyl-1H-pyrazol-4-yl)pyrazolo[5,1-b]thiazole-7-carboxamide] | 600
Cc1ncc(C(=O)NCCN2CC(F)(F)C2)cc1NC(=O)c1cnn2cc(-c3cnn(C)c3)sc12 [Example 125, N-(5-((2-(3,3-difluoroazetidin-1-yl)ethyl)carbamoyl)-2-methylpyridin-3-yl)-2-(1-methyl-1H-pyrazol-4-yl)pyrazolo[5,1-b]thiazole-7-carboxamide] | 300
Cc1ncc(C(=O)NCCN2CC(C)(C)C2)cc1NC(=O)c1cnn2cc(-c3cnn(C)c3)sc12 [Example 126, N-(5-((2-(3,3-dimethylazetidin-1-yl)ethyl)carbamoyl)-2-methylpyridin-3-yl)-2-(1-methyl-1H-pyrazol-4-yl)pyrazolo[5,1-b]thiazole-7-carboxamide] | 300
COCCN(CCNC(=O)c1cnc(C)c(NC(=O)c2cnn3cc(-c4cnn(C)c4)sc23)c1)C(C)C [Example 127, N-(5-((2-(isopropyl(2-methoxyethyl)amino)ethyl)carbamoyl)-2-methylpyridin-3-yl)-2-(1-methyl-1H-pyrazol-4-yl)pyrazolo[5,1-b]thiazole-7-carboxamide] | 600
COCCN(CCNC(=O)c1cnc(C)c(NC(=O)c2cnn3cc(-c4cnn(C)c4)sc23)c1)CCOC [Example 128, N-(5-((2-(bis(2-methoxyethyl)amino)ethyl)carbamoyl)-2-methylpyridin-3-yl)-2-(1-methyl-1H-pyrazol-4-yl)pyrazolo[5,1-b]thiazole-7-carboxamide] | 900
CC(=O)N1CCN(CCNC(=O)c2cnc(C)c(NC(=O)c3cnn4cc(-c5cnn(C)c5)sc34)c2)CC1 [Example 129, N-(5-((2-(4-acetylpiperazin-1-yl)ethyl)carbamoyl)-2-methylpyridin-3-yl)-2-(1-methyl-1H-pyrazol-4-yl)pyrazolo[5,1-b]thiazole-7-carboxamide] | 2900
Cc1ncc(C(=O)NCCN2CCCC2(C)C)cc1NC(=O)c1cnn2cc(-c3cncnc3)sc12 [Example 139, N-(5-((2-(2,2-dimethylpyrrolidin-1-yl)ethyl)carbamoyl)-2-methylpyridin-3-yl)-2-(pyrimidin-5-yl)pyrazolo[5,1-b]thiazole-7-carboxamide] | 5300
Cc1ncc(C(=O)NCCN2CCCC2(C)C)cc1NC(=O)c1cnn2cc(-c3cnn(CCO)c3)sc12 [Example 140, N-(5-((2-(2,2-dimethylpyrrolidin-1-yl)ethyl)carbamoyl)-2-methylpyridin-3-yl)-2-(1-(2-hydroxyethyl)-1H-pyrazol-4-yl)pyrazolo[5,1-b]thiazole-7-carboxamide] | 500
Cc1ncc(C(=O)NCCN2CCCC2(C)C)cc1NC(=O)c1cnn2cc(-c3ccc(=O)[nH]n3)sc12 [Example 141, N-(5-((2-(2,2-dimethylpyrrolidin-1-yl)ethyl)carbamoyl)-2-methylpyridin-3-yl)-2-(6-oxo-1,6-dihydropyridazin-3-yl)pyrazolo[5,1-b]thiazole-7-carboxamide] | 1800
COCCn1cc(-c2cn3ncc(C(=O)Nc4cc(C(=O)NCCN5CC6CCC5CC6)cnc4C)c3s2)cn1 [Example 142, N-(5-((2-(2-azabicyclo[2.2.2]octan-2-yl)ethyl)carbamoyl)-2-methylpyridin-3-yl)-2-(1-(2-methoxyethyl)-1H-pyrazol-4-yl)pyrazolo[5,1-b]thiazole-7-carboxamide] | 500
Cc1ncc(C(=O)NCCN2CC3CCC2CC3)cc1NC(=O)c1cnn2cc(-c3cnn(CS(C)(=O)=O)c3)sc12 [Example 143, N-(5-((2-(2-azabicyclo[2.2.2]octan-2-yl)ethyl)carbamoyl)-2-methylpyridin-3-yl)-2-(1-((methylsulfonyl)methyl)-1H-pyrazol-4-yl)pyrazolo[5,1-b]thiazole-7-carboxamide] | 600
Cc1ncc(C(=O)NCCN2CC3CCC2CC3)cc1NC(=O)c1cnn2cc(-c3cnn(C4COC4)c3)sc12 [Example 144, N-(5-((2-(2-azabicyclo[2.2.2]octan-2-yl)ethyl)carbamoyl)-2-methylpyridin-3-yl)-2-(1-(oxetan-3-yl)-1H-pyrazol-4-yl)pyrazolo[5,1-b]thiazole-7-carboxamide] | 300
Cc1ncc(C(=O)NCCN2CC3CCC2CC3)cc1NC(=O)c1cnn2cc(-c3ccc4oc(=O)[nH]c4c3)sc12 [Example 145, N-(5-((2-(2-azabicyclo[2.2.2]octan-2-yl)ethyl)carbamoyl)-2-methylpyridin-3-yl)-2-(2-oxo-2,3-dihydrobenzo[d]oxazol-5-yl)pyrazolo[5,1-b]thiazole-7-carboxamide] | 200
CC(=O)Nc1ccnc(-c2cn3ncc(C(=O)Nc4cc(C(=O)NCCN5CC6CCC5CC6)cnc4C)c3s2)c1 [Example 146, N-(5-((2-(2-azabicyclo[2.2.2]octan-2-yl)ethyl)carbamoyl)-2-methylpyridin-3-yl)-2-(4-acetamidopyridin-2-yl)pyrazolo[5,1-b]thiazole-7-carboxamide] | 600
